Reference: patent US20240366731A1, “ORAL ALGAL OIL BASED GASTRO-INTESTINAL TRACT PERMEABLE PEPTIDE COMPOSITION” (CELAGENEX RESEARCH (INDIA) PVT. LTD., priority 2021, published 2024)
Values joined by “and” are separate entries in the source; they are usually repeats but may differ in a detail not shown here. Equal entries are not always repeated.

Assay: Study of Composition-3 vs Januvia (Sitagliptin) vs Placebo in T2D adult patients with inadequate glycemic control, 04-week treatment
Assay type: in vivo, human
Description: A study of Composition-3 vs Januvia (Sitagliptin) vs Placebo in adult patients with inadequate glycemic control • 1. Composition-3—Oral insulin—8 mg • 2. Reference—Januvia (Sitagliptin)—100 mg • 3. Placebo
The pivotal study was involved 36 patients divided in to 3 groups of 12 each randomized to 1:1:1 into three cohorts dosed with 8 mg of Composition-3at night, Januvia 100 mg (Sitagliptin) at night and placebo at night.
Patient population-T2D adult patients above age of 21 years with inadequate glycemic control who were managing their condition with diet and metformin monotherapy.
• HbA1c ≥7.5% on metformin ≥500 mg daily • At time of randomization, patients were treated for their diabetes by diet, exercise, and metformin (≥500 mg/day; any type and regimen). […] A negative urine pregnancy test was obtained during Visit 2 and at Visit 4 (prior to randomization). • Males and females of childbearing potential used two methods of contraception (double barrier method), one of which must be an acceptable barrier method from the time of screening to the last study visit
• Patients who meet any of the following criteria was not eligible for this study. • Presence of any clinically significant endocrine disease according to the Investigator (euthyroid patients on replacement therapy was included if the dosage of thyroxine is stable for at least six weeks prior to Screening Visit). • Clinical diagnosis of Type 1 diabetes. • Presence or history of cancer within the past five years except for adequately treated localized basal cell skin cancer or in situ uterine cervical cancer. • Laboratory abnormalities at screening including: • 1. C-peptide <1.0 ng/mL. • 2. Positive pregnancy test in females of childbearing potential (at screening and start of run-in period). • 3. Abnormal serum thyrotropin (TSH) levels >1.5 times the upper limit of normal. • 4. Positive test for hepatitis B surface antigen and/or hepatitis C antibody. • 5. Positive test for HIV. • 6. Serum Cr >1.4 mg/dl in males, >1.3 mg/dl in females. • 7. Any relevant abnormality interfering with the efficacy or the safety assessments during study drug administration. • Use of the following medications: • 1. History of use of insulin for greater than one week in the last six months and any use of insulin in the last six weeks prior to randomization. • 2. Administration of anti-diabetic drugs other than metformin within four weeks prior to randomization visit. Administration of thyroid preparations or thyroxine within six weeks prior to screening visit. […] (Note: Alcohol abuse includes heavy alcohol intake as defined by >3 drinks per day or >14 drinks per week, or binge drinking). • Elevated liver enzymes (alanine transaminase (ALT), […], alkaline phosphatase) greater than two times the upper limit of normal at screening. • Very high triglyceride level (>500 mg/dL) at screening. • Any clinically significant electrocardiogram (ECG) abnormality at screening or cardiovascular disease. Clinically significant cardiovascular disease will include: • 1. History of stroke, transient ischemic attack, or myocardial infarction within six months prior to screening, • 2. History of or currently have New York Heart Associate Class II-IV heart failure prior to screening, or • 3. Uncontrolled hypertension defined as blood pressure ≥160 mmHg (systolic) or ≥100 mmHg (diastolic) at screening.
• The primary endpoint of the study was to compare the efficacy of Composition-3 to Sitagliptin & placebo in improving glycaemic control as assessed by A1c over a 04-week treatment period, with a secondary endpoint of comparing Composition-3 to Sitagliptin & placebo in change from baseline in FPG at week 04 • 1. Change from Baseline in Haemoglobin A1c (A1C) at Week 04 [Time Frame: Baseline and Week 04] A1C was measured as the percentage of glycosylated haemoglobin. Change in A1C following 04 weeks of therapy (i.e., A1C at Week 04 minus A1C at baseline) • 2. […]

SMILES: N[C@@H](CC(=O)N1CCn2c(nnc2C(F)(F)F)C1)Cc1cc(F)c(F)cc1F [Sitagliptin]
- Mean A1c (HbA1c) % week 04 (group mean n = 12, Week 04): 6.66%
- Mean FPG (mg/dl) week 04 (group mean n = 12, Week 04): 160.53 mg/dL
- % Improvement A1c (HbA1c) (group mean n = 12, Week 04 vs baseline): 14.7%
- Mean A1c (HbA1c) % baseline (group mean n = 12, baseline): 7.81%
- Mean FPG (mg/dl) baseline (group mean n = 12, baseline): 200.68 mg/dL
- FPG (mg/dl) Week 04 (individual patient, Week 04, before breakfast): 155.06 mg/dl and 159.18 mg/dl and 156.1 mg/dl and 150.54 mg/dl and 158.1 mg/dl and 166.66 mg/dl and 157.66 mg/dl and 164.78 mg/dl (2×) and 182.58 mg/dl and 152.06 mg/dl and 158.54 mg/dl
- A1c (HbA1c) % Week 04 (individual patient, Week 04, dosed orally at night): 6.6% (4×) and 6.8% (3×) and 6.5% (2×) and 6.4% (2×) and 7.3%
- A1c (HbA1c) % Baseline (individual patient, baseline, T2D patients on metformin): 7.9% (2×) and 8% and 7.6% (2×) and 7.7% (3×) and 7.8% (3×) and 8.2%
- FPG (mg/dl) Baseline (individual patient, baseline, before breakfast): 203.94 mg/dl (2×) and 207.5 mg/dl and 193.26 mg/dl (2×) and 196.82 mg/dl (3×) and 200.38 mg/dl (3×) and 214.62 mg/dl
